The values below come from patent US9655840B2, “Wound care products” (RIGSHOSPITALET, COPENHAGEN UNIVERSITY HOSPITAL, priority 2009, dated 2017).

The test system of test [1] is P. aeruginosa biofilm. The experiment in a line: static 24 hour old biofilm in microtiter dishes, CFU after treatment. It counts as cell-based. The conditions noted are these: for synergistic antimicrobial effect in combination with acetic acid: combined with 0.5% acetic acid, static biofilm; for antimicrobial effect on static biofilm (CFU): 0.5% acetic acid. The text has this:
AB minimal medium without acetic acid adjusted to different pH values was used as control.
AB minimal medium supplemented with increasing concentrations of tobramycin served as control. The biofilm were harvested and plated on LB plates to determine the CFU after treatment (For visual appearance “no growth” is arbitrarily given a CFU value of 2).
AB minimal medium without acetic acid, but supplemented with increasing concentrations of tobramycin served as control.
The wild-type P. aeruginosa PAO1 used for the planktonic and biofilm experiments was obtained from the Pseudomonas Genetic Stock Center (www.pseudomonas.med.ecu.edu, strain PAO0001). The wild-type S. aureus 8325-4, used for planktonic and biofilm experiments was described by Novick, R. P. 1967.
For plating, Luria broth (LB) medium mix with 2.0% agar was used. For all experiments including bacterial biofilms, AB minimal medium supplemented with glucose was used except if different is mentioned.
Planktonic cultures were grown in shake flasks at 37° C.
Static biofilm tolerance to acetic acid was assessed by exchanging the AB minimal medium of 24 h old biofilms with AB minimal medium supplemented with different concentrations of acetic acid or HCl as control. To raise the pH of either acetic acid or HCl, NaOH was added in different concentrations.
To elucidate a synergistic antimicrobial effect of acetic acid and antibiotics, static biofilms of P. aeruginosa were grown for 24 hours prior to subsequent treatment with increasing concentrations of tobramycin and 0.5% acetic acid in the pH interval 3-6.85. The pH was adjusted by supplementing the AB minimal medium with either HCl or NaOH.

For test [2], the system named is P. aeruginosa PAO1 biofilm. Description: continuous flow chamber biofilm, 3-day-old, harvested and plated on LB plates for viability. Format: cell-based. The source says:
(§1) The wild-type P. aeruginosa PAO1 used for the planktonic and biofilm experiments was obtained from the Pseudomonas Genetic Stock Center (www.pseudomonas.med.ecu.edu, strain PAO0001). The wild-type S. aureus 8325-4, used for planktonic and biofilm experiments was described by Novick, R. P. 1967. For plating, Luria broth (LB) medium mix with 2.0% agar was used. For all experiments including bacterial biofilms, AB minimal medium supplemented with glucose was used except if different is mentioned. […] The continuous flow system is based on once through flow chambers perfused with sterile AB minimal medium containing 0.3 mM glucose as described by Christensen et al. (1999). Continuous flow biofilm tolerance to acetic acid was assessed by growing P. aeruginosa or S. aureus biofilms for three days, then subsequently at day three to four supplementing the AB minimal medium with different concentrations of acetic acid or HCl (HCL served as a as control to acetic acid treatments). […] Due to the buffer capacity of the AB minimal medium used, the pH of the solution became 4.33. […] After the treatment the biofilm biomasses were harvested mechanically from the flow chambers and plated on LB plates for determination of viability. […] The kinetics of antimicrobial activity against mature biofilms was tested by treating a 3-day-old continuous flow chamber biofilms of either P. aeruginosa with 0.5% or S. aureus with 1.0% acetic acid for 24 hours. Due to the buffer capacity of the AB minimal medium used the pH of the solution became 4.33. […] After the treatment the biofilms were harvested mechanically, by scraping with a sterile scalpel, from the flow chambers and plated on LB plates for determination of viable counts.

For test [3], the system named is clinical non-mucoid P. aeruginosa isolate biofilm.
Test [4] concerns clinical mucoid P. aeruginosa isolate biofilm.
Test [5] concerns S. aureus 8325-4 biofilm.
Excerpt: as §1

The mark [6] stands for this setting: 0.5% acetic acid, 24 hours, AB minimal medium, pH 4.33.
[7] abbreviates: 1.0% acetic acid, 24 hours, AB minimal medium, pH 4.33.

Structures can show the parent of a compound that is named as a salt. Where two headings read alike, the source gives them in different places.

On to `O=C(O)c1cn(C2CC2)c2cc(N3CCNCC3)c(F)cc2c1=O` [ciprofloxaxine, reference compound], for which, in test [1], the “synergistic antimicrobial effect in combination with acetic acid” value was “analogous synergistic effects”.
On to `Cl` [HCl, reference compound], for which the “eradication of mature biofilm (viability by plating)” value in test [2] (AB minimal medium adjusted to pH 4.33 using HCl, 24 hours (control)) was “had no effect”.
For `NC[C@H]1O[C@H](O[C@H]2[C@H](O)[C@@H](O[C@H]3O[C@H](CO)[C@@H](O)[C@H](N)[C@H]3O)[C@H](N)C[C@@H]2N)[C@H](N)C[C@@H]1O` [tobramycin, reference compound], in test [1] (tobramycin alone, concentrations above 12.5 μg/ml), the “reduction of bacterial viability” value stood at 5 fold.
Regarding `CC(=O)O` [acetic acid], the “antibacterial effect on static biofilm (CFU)” value in test [1] (0.5% acetic acid alone, pH 6.85) is recorded as “no antibacterial effect”. The “antimicrobial effect on static biofilm (CFU)” value in test [1] (pH 5) is recorded as “reduced effect”; in test [1] (pH 5.5 and above), “no effect”; in test [1] (pH interval 3-4.76), “eradicated biofilms”. Further, the “eradication of mature biofilm (viability by plating)” value in test [2] (0.5% acetic acid in sterile miliQ water) is “Complete eradication”; in test [2] (setting [6]) it was “completely eradicated”; in test [2] (setting [7]), “completely eradicated”; in test [5] (setting [6]), “reduced the number of viable cells”; in test [5] (1.0% acetic acid in sterile miliQ water), “Complete eradication”; in test [5] (setting [7]), “complete eradication”. The “time to complete killing of all bacteria” value in test [2] (0.5% acetic acid, AB minimal medium, pH 4.33) was determined as 3 h; in test [5] (1.0% acetic acid, AB minimal medium, pH 4.33), 3 h. Moreover, the eradication of biofilm result in test [3] and in test [4] was “eradicates the biofilms” in each case.
For the molecule colistin [reference compound], the “synergistic antimicrobial effect in combination with acetic acid” value in test [1] is “analogous synergistic effects”.
